Experimental data published in patent publication US9622998B2, “Rapid-acting, blood-arginine-level-increasable oral preparation comprising citrulline and arginine” (Kyowa Hakko Bio Co., Ltd., priority 2007, dated 2017).

Legend:
[1] = tested on: NO metabolite (NOx:NO2+NO3); assay: Plasma NO metabolite (NOx) after oral administration to rabbits (Experimental Example 2); type: in vivo; settings: male New Zealand rabbits, fasted 16 hr, oral by sonde, groups 1 and 2: 2.85 mmol/kg, group 3: 1.43 mmol/kg each
Protocol: (§1) 14-Week-old male New Zealand rabbits (KITAYAMA LABES Co., Ltd.) were purchased, preliminarily bred for 28 days and divided into 3 groups (n=3 or 4). After fasting for 16 hr, L-citrulline and L-arginine were orally administered to the rabbits of group 1 and group 2, respectively, by a sonde to achieve 2.85 mmol/kg per rabbit for both (499.3 mg/kg and 496.5 mg/kg, respectively). Moreover, L-citrulline and L-arginine were orally administered to the rabbits of group 3 by a sonde to achieve 1.43 mmol/kg per rabbit (250.5 mg/kg and 249.1 mg/kg, respectively).
(§2) The blood was collected from the ear vein before administration, and 30 min, 1, 2 and 4 hr after administration, and subjected to quantification of L-arginine, NO metabolite and cGMP in plasma. The blood was collected in a 1.5 mL tube containing 1% heparin dispensed thereto in advance (for quantification of L-arginine) and a disodium ethylenediaminetetraacetate (EDTA-2Na)-added tube (for quantification of NO metabolite and cGMP), and centrifuged (12000 rpm, 10 min, 4° C.) to give plasma. In heparin plasma thereafter, 3% sulfosalicylic acid in the same amount as the plasma was added and blended, and the mixture was stood still on ice for 1 hr and centrifuged (12000 rpm, 10 min, 4° C.) to give deproteinized plasma as a sample for analysis.
(§3) L-arginine in the sample for analysis was quantified using an automatic amino acid analyzer (JOEL JLC-500/V), NO metabolite (NOx:NO2+NO3) was quantified using a nitrogen oxide analyzer (Eicom ENO10), and cGMP was quantified by […] (Amersham Pharmacia RPN226).
(§4) Moreover, the area under the blood concentration-time curves of L-arginine, NO metabolite and cGMP in plasma were calculated, and the results are shown in Table 2-Table 4.

cGMP = assay: Plasma cGMP after oral administration to rabbits (Experimental Example 2); type: in vivo; settings: male New Zealand rabbits, fasted 16 hr, oral by sonde, groups 1 and 2: 2.85 mmol/kg, group 3: 1.43 mmol/kg each
Protocol: as §1, §2, §3, §4

For `N=C(N)NCCC[C@H](N)C(=O)O` [group 2, L-arginine], the “AUC of NO metabolite in plasma, 0-30 min” value [1] was 0.3 nmol·h/mL, the “AUC of NO metabolite in plasma, 0-1 hr” value [1] was 10.1 nmol·h/mL and the “AUC of cGMP in plasma, 0-30 min” value (cGMP) was 0.028 nmol·h/mL. The “AUC of cGMP in plasma, 0-1 hr” value (cGMP) was 0.10 nmol·h/mL.

In the case of `NC(=O)NCCC[C@H](N)C(=O)O` [group 1, L-citrulline], the “AUC of NO metabolite in plasma, 0-30 min” value [1] is reported as 8.1 nmol·h/mL, the “AUC of NO metabolite in plasma, 0-1 hr” value [1] is reported as 25.7 nmol·h/mL and the “AUC of cGMP in plasma, 0-30 min” value (cGMP) is reported as 0.033 nmol·h/mL. For the same molecule, the “AUC of cGMP in plasma, 0-1 hr” value (cGMP) was 0.12 nmol·h/mL.
